Where “and” joins values, the source holds several entries; their conditions need not be identical. Equal values may be shown once.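 In this assay, cells in 96-well plates receive the compound at five concentrations for 48 hours. Endpoints are linearly interpolated between the surrounding concentrations. The concentration for 50% growth inhibition is given as GI50. Definition used: TGI = concentration required for complete inhibition of growth.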 Some results are limits rather than exact numbers.

The values that follow come from PubChem BioAssay (NCI).

Among the test systems are A549 NSCLC; LOX IMVI melanoma; M14 melanoma; NCI-H460 lung; SF-268 CNS; SF-539 CNS; SK-MEL-2 melanoma; SN12C renal; UACC-257 melanoma; ACHN renal.
What all share (assay): inhibition of tumour cell growth, NCI panel, 48 h

Take `COc1cc(C(=O)C2CC3(CCC2(O)c2cc(OC)c(OC)c(OC)c2)CC(=O)Nc2ccccc2C3=O)cc(OC)c1OC` (centres undefined): the TGI was above 100 µM with A549 NSCLC; above 100 µM with LOX IMVI melanoma; above 100 µM in the experiment on M14 melanoma; 50.7 µM in the experiment on NCI-H460 lung; above 100 µM with SF-268 CNS; above 100 µM in the experiment with SF-539 CNS. The TGI with SK-MEL-2 melanoma, with SN12C renal and with UACC-257 melanoma was above 100 µM in each case.

For the compound `Cc1c(C2=NN=C(N=Nc3c(O)cccc3O)/C2=C/c2ccccc2)c(=O)n(-c2ccccc2)n1C`, the TGI in the experiment with A549 NSCLC, in the experiment on LOX IMVI melanoma, in the experiment with NCI-H460 lung, in the experiment on SF-268 CNS, in the experiment with SF-539 CNS and with SK-MEL-2 melanoma was above 100 µM throughout. Moreover, the TGI with SN12C renal and with UACC-257 melanoma was above 100 µM in each case.

Take `Nc1n[nH]c(CCCCCCCc2nc(N)n[nH]2)n1`: the TGI in the experiment with ACHN renal, in the experiment on LOX IMVI melanoma, with M14 melanoma, in the experiment on NCI-H460 lung, in the experiment with SF-268 CNS and with SF-539 CNS was above 100 µM throughout. The TGI in the experiment on SK-MEL-2 melanoma, in the experiment with SN12C renal and in the experiment with UACC-257 melanoma was above 100 µM in each case.

Turning to `CC(C)=CCC/C(C)=C/CCC1(C)C=Cc2c(c3ccccc3oc2=O)O1` (centres undefined), the TGI in the experiment on A549 NSCLC came out at 33.2 µM; with LOX IMVI melanoma, 32.4 µM; in the experiment on NCI-H460 lung, 30.1 µM; in the experiment with SF-268 CNS, 40.8 µM; in the experiment on SF-539 CNS it was 30.5 µM; in the experiment on SK-MEL-2 melanoma, 31.4 µM. Moreover, the figures for the TGI in the experiment with SN12C renal and in the experiment with UACC-257 melanoma were 32 µM and 31.2 µM, respectively.

For `CC1SC(c2ccc(Cl)cc2)N(CCc2cccs2)C1=O` (centres undefined), the GI50 with A549 NSCLC was 2.07 µM; with ACHN renal, 1.88 µM; with LOX IMVI melanoma it was 1.23 µM; in the experiment with NCI-H460 lung it was 1.56 µM; in the experiment on SF-268 CNS, 1.55 µM; with SF-539 CNS, 1.72 µM. Also, the GI50 in the experiment with SK-MEL-2 melanoma is 1.36 µM; in the experiment with SN12C renal, 1.7 µM; with UACC-257 melanoma, 1.99 µM. For the same compound, the TGI with A549 NSCLC is 7.41 µM; with ACHN renal, 4.89 µM; in the experiment on LOX IMVI melanoma, 2.49 µM; in the experiment with NCI-H460 lung, 3.26 µM; with SF-268 CNS, 3.49 µM; in the experiment with SF-539 CNS, 3.21 µM. Moreover, the values for the TGI in the experiment with SK-MEL-2 melanoma, in the experiment on SN12C renal and in the experiment on UACC-257 melanoma were 2.72 µM, 3.15 µM and 4.23 µM, respectively.

As for `O=C(O)CCCc1ccccc1`, the GI50 was 322 µM and > 1000 µM with A549 NSCLC; 436 µM and > 1000 µM with ACHN renal; 224 µM and > 1000 µM in the experiment with LOX IMVI melanoma; above 1000 µM in the experiment on M14 melanoma; above 1000 µM with NCI-H460 lung; above 1000 µM in the experiment with SF-539 CNS. Besides, the GI50 is 349 µM and > 1000 µM in the experiment on SK-MEL-2 melanoma; above 1000 µM in the experiment on SN12C renal; 340 µM and > 1000 µM in the experiment on UACC-257 melanoma. Besides, the TGI with A549 NSCLC was above 1000 µM; in the experiment with ACHN renal it was above 1000 µM; with LOX IMVI melanoma it was 898 µM and > 1000 µM; in the experiment with M14 melanoma it was above 1000 µM; in the experiment on NCI-H460 lung, 295 µM and > 1000 µM; in the experiment with SF-268 CNS it was 348 µM and > 1000 µM. The TGI in the experiment with SF-539 CNS is 533 µM and > 1000 µM; in the experiment with SK-MEL-2 melanoma, 932 µM and > 1000 µM; in the experiment on SN12C renal, above 1000 µM; with UACC-257 melanoma, above 1000 µM.

In the case of `COCCOCOC(C)(C)[C@H](CCO)O[Si](c1ccccc1)(c1ccccc1)C(C)(C)C`, the TGI in the experiment on A549 NSCLC stood at 22.1 µM; with ACHN renal it was 18.9 µM; in the experiment on LOX IMVI melanoma, 23.3 µM; in the experiment with M14 melanoma, 21.8 µM; with NCI-H460 lung it was 22.3 µM; with SF-268 CNS it was 22.5 µM. In addition, the values for the TGI with SF-539 CNS, in the experiment on SN12C renal and in the experiment with UACC-257 melanoma were 27.4 µM, 12.7 µM and 23.5 µM, respectively.

As to `O=C(O)C12CC3CC(C1)C2C=C3P(=O)(O)O` (centres undefined), the TGI with ACHN renal, with LOX IMVI melanoma, in the experiment on M14 melanoma, in the experiment on NCI-H460 lung, in the experiment with SF-268 CNS and in the experiment on SK-MEL-2 melanoma was above 100 µM throughout. Further, the TGI in the experiment with SN12C renal and in the experiment with UACC-257 melanoma was above 100 µM each time.

On to `O=C1c2ccccc2C(=O)c2c1cc1c(c2[N+](=O)[O-])OCO1`, for which the GI50 is 4.94 µM with A549 NSCLC; 0.248 µM in the experiment on ACHN renal; 1.43 µM in the experiment with LOX IMVI melanoma; 3.78 µM in the experiment with M14 melanoma; 2.11 µM in the experiment with NCI-H460 lung; 1.46 µM in the experiment with SF-268 CNS. Further, the GI50 in the experiment on SF-539 CNS was 1.71 µM; in the experiment with SK-MEL-2 melanoma, 2.56 µM; in the experiment with SN12C renal, 1.73 µM; in the experiment on UACC-257 melanoma, 11.8 µM. Further, the TGI came out at 21.9 µM with A549 NSCLC; 1.3 µM in the experiment with ACHN renal; 4.92 µM in the experiment on LOX IMVI melanoma; 16.9 µM in the experiment on M14 melanoma; 7.06 µM with NCI-H460 lung; 7.73 µM in the experiment on SF-268 CNS. Moreover, the TGI with SF-539 CNS was 6.31 µM; in the experiment on SK-MEL-2 melanoma it was 5.14 µM; in the experiment on SN12C renal it was 8.05 µM; with UACC-257 melanoma, 41.5 µM.

As to `c1ccc2cc3c(cc2c1)OP1(Oc2cccc4cccnc24)(O3)Oc2cc3ccccc3cc2O1`, the TGI in the experiment with A549 NSCLC was above 100 µM; in the experiment on LOX IMVI melanoma, 22.5 µM; in the experiment with NCI-H460 lung it was 12.3 µM; with SF-268 CNS, above 100 µM; in the experiment on SF-539 CNS it was 49.2 µM; with SK-MEL-2 melanoma it was 79.6 µM. In addition, the TGI with SN12C renal is above 100 µM; with UACC-257 melanoma, 8.94 µM.

Turning to `COc1cc(/C=C/C2=C(C#N)C(=O)OC2(C)C)ccc1O`, the TGI is above 100 µM in the experiment with A549 NSCLC; above 100 µM with ACHN renal; 44.2 µM in the experiment on LOX IMVI melanoma; above 100 µM with NCI-H460 lung; above 100 µM in the experiment on SF-268 CNS; above 100 µM in the experiment with SK-MEL-2 melanoma. For the same compound, the TGI in the experiment on SN12C renal and in the experiment on UACC-257 melanoma was above 100 µM in each case.
